Data published in patent US7645764B2, “Kinase inhibitors and methods for using the same” (Roche Palo Alto LLC, priority 2006, dated 2010).
pIC50: −log10 of the molar value.

Tests used:
cloned human c-Raf = target: T1, cloned human c-Raf (Homo sapiens, UniProt P04049); test: c-Raf HTRF assay with 6H-MEK as substrate (dose response); format: biochemical; conditions: 6H-MEK substrate
T1 construct: made in house; host or cells: High-5 (Hi5) insect cells, baculovirus, co-infected with FLAG-vSrc
Method: c-Raf HTRF Assay with 6H-MEK as Substrate (Dose Response)
This assay utilizes 6H-MEK as the substrate. Upon c-Raf phosphorylation, phosphorylated 6H-MEK is detected with rabbit anti-phospho-MEK1/2, Eu-labeled anti-rabbit, and APC-labeled anti-6H antibodies.
(§1) Procedure • (1) Prepare Kinase Assay Buffer (KAB): 50 mM HEPES (HyClone) pH7, 10 mM MgCl2, 1 mM DTT, 0.1 mM […], and 0.3 mg/ml BSA. • (2) Prepare 6H-MEK (150 nM) in KAB. Add 12 μl/well to the assay plate. • (3) Prepare ATP (66 μM) in KAB. • (4) Dilute compounds to 2.4 mM and any positive controls to 480 μM in DMSO. Perform 10-point 3× dilution in DMSO. […] For the cross talk factor sample, add 6 μl/well of Eu-anti rabbit IgG (9 nM). • (14) Incubate at room temperature for 1.5 hours. • (15) Read HTRF signals at 615 nm and 665 nm on the Envision. […]
N terminal EE-tagged c-Raf was expressed in High-5 cells. […] Protein concentration was determined by the BioRad DC method.

[1] = target: T2, recombinant human b-Raf residues 416-end containing a V600E mutation (Homo sapiens, UniProt P15056, V600E); test: b-Raf V600E mutant HTRF assay with 6H-MEK as substrate (dose response); format: biochemical; conditions: 6H-MEK substrate
T2 construct: recombinant human b-Raf residues 416-end containing a V600E mutation; purchased Upstate 14-5M; host or cells: baculovirus in Sf21 insect cells
Method: b-Raf V600E Mutant HTRF Assay with 6H-MEK as Substrate (Dose Response)
This assay utilizes 6H-MEK as the substrate. Upon b-Raf V600E phosphorylation, phosphorylated 6H-MEK is detected with rabbit anti-phospho-MEK1/2, Eu-labeled anti-rabbit, and APC-labeled anti-6H antibodies.
as §1, with “Assay Procedure:” for “Procedure”, “and” for “and any”

[2] = target: T3, recombinant human b-Raf residues 416-end (wild type) (Homo sapiens, UniProt P15056); test: b-Raf wild-type HTRF assay with 6H-MEK as substrate (dose response); format: biochemical; conditions: 6H-MEK substrate
T3 construct: recombinant human b-Raf residues 416-end with N-terminal GST-tag; purchased Upstate 14-530M; host or cells: baculovirus in Sf21 insect cells
Method: b-Raf Wild-Type HTRF Assay with 6H-MEK as Substrate (Dose Response)
This assay utilizes 6H-MEK as the substrate. Upon b-Raf WT phosphorylation, phosphorylated 6H-MEK is detected with rabbit anti-phospho-MEK1/2, Eu-labeled anti-rabbit, and APC-labeled anti-6H antibodies.
as §1, with “Assay Procedure:” for “Procedure”

p38 MAP kinase = target: T4, p38 MAP kinase (Homo sapiens, UniProt Q16539); test: p38 MAP kinase in vitro assay (33P-ATP phosphate transfer to Myelin Basic Protein); format: biochemical
T4 construct: made in house; host or cells: E. coli (co-expressed with SEK-1 and MEKK)
Method: This example illustrates a p38 (MAP) kinase in vitro assay useful for evaluating the compounds of the invention.
The p38 MAP kinase inhibitory activity of compounds of this invention in vitro was determined by measuring the transfer of the γ-phosphate from γ-^33P-ATP by p-38 kinase to Myelin Basic Protein (MBP), using a minor modification of the method described in Ahn, et al., J. Biol. Chem. 266:4220-4227 (1991).
The phosphorylated form of the recombinant p38 MAP kinase was co-expressed with SEK-1 and MEKK in E. Coli (see, Khokhlatchev, et al., J. Biol. Chem. 272:11057-11062 (1997)) and then purified by affinity chromatography using a Nickel column.
The phosphorylated p38 MAP kinase was diluted in kinase buffer (20 mM 3-(N-morpholino)propanesulfonic acid, pH 7.2, 25 mM β-glycerol phosphate, 5 mM ethylene glycol-bis(beta-aminoethyl ether)-N,N,N′,N′-tetraacetic acid, 1 mM sodium ortho-vanadate, 1 mM dithiothreitol, 40 mM magnesium chloride). Test compound dissolved in DMSO or only DMSO (control) was added and the samples were incubated for 10 min at 30° C. The kinase reaction was initiated by the addition of a substrate cocktail containing MBP and γ-^33P-ATP. […] The phosphorylated MBP was then separated from the residual γ-^33P-ATP using a phosphocellulose membrane (Millipore, Bedfrod, Mass.) and quantitated using a scintillation counter (Packard, Meriden, Conn.).

T4 sequence (Q16539 whole entry): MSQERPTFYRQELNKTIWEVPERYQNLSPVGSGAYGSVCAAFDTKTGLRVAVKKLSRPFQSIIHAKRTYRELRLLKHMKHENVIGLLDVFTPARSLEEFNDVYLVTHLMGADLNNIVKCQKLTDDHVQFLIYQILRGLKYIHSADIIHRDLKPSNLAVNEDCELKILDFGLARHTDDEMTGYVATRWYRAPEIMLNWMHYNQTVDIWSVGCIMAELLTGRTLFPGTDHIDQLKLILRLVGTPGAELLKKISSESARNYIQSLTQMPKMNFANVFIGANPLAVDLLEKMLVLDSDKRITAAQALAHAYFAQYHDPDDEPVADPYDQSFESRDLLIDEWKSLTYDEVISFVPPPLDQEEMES
T2 sequence (P15056 416-766 V600E): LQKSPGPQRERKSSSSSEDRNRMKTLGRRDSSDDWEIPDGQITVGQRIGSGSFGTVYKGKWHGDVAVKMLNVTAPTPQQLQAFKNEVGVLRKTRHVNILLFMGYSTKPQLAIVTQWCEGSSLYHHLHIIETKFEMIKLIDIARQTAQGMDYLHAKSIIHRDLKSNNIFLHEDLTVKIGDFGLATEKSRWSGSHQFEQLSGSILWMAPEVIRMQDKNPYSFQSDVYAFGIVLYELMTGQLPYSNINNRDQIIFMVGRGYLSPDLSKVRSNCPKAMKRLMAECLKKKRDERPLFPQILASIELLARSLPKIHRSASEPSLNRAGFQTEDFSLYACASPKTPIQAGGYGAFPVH
T1 sequence (P04049 whole entry): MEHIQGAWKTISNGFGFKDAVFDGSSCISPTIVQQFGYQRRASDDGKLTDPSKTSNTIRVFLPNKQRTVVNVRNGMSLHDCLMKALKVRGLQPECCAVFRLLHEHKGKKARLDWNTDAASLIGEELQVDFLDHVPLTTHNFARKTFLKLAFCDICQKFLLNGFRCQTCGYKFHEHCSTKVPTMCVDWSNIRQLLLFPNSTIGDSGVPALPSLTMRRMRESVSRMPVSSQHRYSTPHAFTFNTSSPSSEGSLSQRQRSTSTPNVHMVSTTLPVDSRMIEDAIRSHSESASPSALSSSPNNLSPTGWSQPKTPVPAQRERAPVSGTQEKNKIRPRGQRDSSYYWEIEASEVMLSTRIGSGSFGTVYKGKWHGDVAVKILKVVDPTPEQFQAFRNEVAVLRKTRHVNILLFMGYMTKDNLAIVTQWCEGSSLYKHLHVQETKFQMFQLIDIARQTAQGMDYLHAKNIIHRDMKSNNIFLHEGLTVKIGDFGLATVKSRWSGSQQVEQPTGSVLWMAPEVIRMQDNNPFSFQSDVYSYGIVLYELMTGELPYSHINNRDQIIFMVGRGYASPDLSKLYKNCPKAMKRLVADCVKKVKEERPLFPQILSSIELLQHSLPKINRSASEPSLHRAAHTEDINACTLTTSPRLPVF
T3 sequence (P15056 416-766 limits assumed): as the sequence (P15056 416-766 V600E) above, with E185V counted along it

With `COC(=O)c1ccc(C)c(-c2cc3cnc(NC4CCOCC4)nc3n(C)c2=O)c1` [Compound 1, 4-Methyl-3-[8-methyl-7-oxo-2-(tetrahydro-pyran-4-ylamino)-7,8-dihydro-pyrido[2,3-d]pyrimidin-6-yl]-benzoic acid methyl ester] the melting point was 122.5 to 126.5 °C.

In the case of `Cc1nnc(-c2ccc(C)c(-c3cc4cnc(NC5CCOCC5)nc4n(C)c3=O)c2)o1` [Compound 4, 8-Methyl-6-[2-methyl-5-(5-methyl-[1,3,4]oxadiazol-2-yl)-phenyl]-2-(tetrahydro-pyran-4-ylamino)-8H-pyrido[2,3-d]pyrimidin-7-one], the pIC50 (cloned human c-Raf) was about 6.72.

For `CNC(=O)c1ccc(C)c(-c2cc3cnc(NC4CCOCC4)nc3n(C)c2=O)c1` [Compound 8, 4,N-Dimethyl-3-[8-methyl-7-oxo-2-(tetrahydro-pyran-4-ylamino)-7,8-dihydro-pyrido[2,3-d]pyrimidin-6-yl]-benzamide], the pIC50 [1] was about 8.00 and the pIC50 [2] was about 7.70.

`Cc1ccc(-c2nnc[nH]2)cc1-c1cc2cnc(NC3CCOCC3)nc2n(C)c1=O` [Compound 11, 8-Methyl-6-[2-methyl-5-(4H-[1,2,4]triazol-3-yl)-phenyl]-2-(tetrahydro-pyran-4-ylamino)-8H-pyrido[2,3-d]pyrimidin-7-one] showed a melting point of 214.9 to 216 °C.

`Cc1ccc(C#N)cc1-c1cc2cnc(NC3CCOCC3)nc2n(C)c1=O` [Compound 12, 4-Methyl-3-[8-methyl-7-oxo-2-(tetrahydro-pyran-4-ylamino)-7,8-dihydro-pyrido[2,3-d]pyrimidin-6-yl]-benzonitrile] showed a melting point of 253.5 to 254.1 °C.

`Cc1ccc(-c2ncc[nH]2)cc1-c1cc2cnc(NC3CCOCC3)nc2n(C)c1=O` [Compound 13, 6-[5-(1H-Imidazol-2-yl)-2-methyl-phenyl]-8-methyl-2-(tetrahydro-pyran-4-ylamino)-8H-pyrido[2,3-d]pyrimidin-7-one] gave a pIC50 (p38 MAP kinase) of about 9.18.
